# US6737383B1, “Herbicidal oxadiazolidines” (priority 1999, dated 2004)
# Experiments:
# wheat = experiment: Test B pre/postemergence wheat; format: in vivo, Triticum aestivum
# How it was run: (§1)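 Test chemicals in a non-phytotoxic solvent mixture with surfactant were sprayed preemergence onto planted seeds and postemergence onto plants 2 to 18 cm tall (1- to 4-leaf stage). After twelve to sixteen days in a greenhouse, injury was visually rated against untreated controls from 0 (no effect) to 10 (complete control).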
# bamyardgrass = experiment: Test B flood test barnyardgrass; format: in vivo, Echinochloa crus-galli; details: Pre-emergence
# How it was run: (§2)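 Plants were grown to the 2-leaf stage before treatment with test chemical, then held in a greenhouse for twelve to sixteen days. Injury was visually rated against untreated controls on a 0–10 scale, where 0 is no effect and 10 is complete control.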
# purple nutsedge = experiment: Test B pre/postemergence purple nutsedge; format: in vivo, Cyperus rotundus
# How it was run: as §1
# wild oat = experiment: Test B pre/postemergence wild oat; format: in vivo, Avena fatua
# How it was run: as §1
# rice = experiment: Test B flood test rice; format: in vivo, Oryza sativa; details: Pre-emergence
# How it was run: as §2
# crabgrass = experiment: Test B pre/postemergence crabgrass; format: in vivo, Digitaria sanguinalis
# How it was run: as §1
# surinam grass = experiment: Test B pre/postemergence surinam grass; format: in vivo, Brachiaria decumbens
# How it was run: as §1
# sugar beet = experiment: Test B pre/postemergence sugar beet; format: in vivo, Beta vulgaris
# How it was run: as §1
# rape = experiment: Test B pre/postemergence rape; format: in vivo, Brassica napus
# How it was run: as §1
# smallflower flatsedge = experiment: Test B flood test smallflower flatsedge; format: in vivo, Cyperus difformis; details: Pre-emergence
# How it was run: as §2
# corn = experiment: Test B pre/postemergence corn; format: in vivo, Zea mays
# How it was run: as §1
# giant foxtail = experiment: Test B pre/postemergence giant foxtail; format: in vivo, Setaria faberii
# How it was run: as §1
# bedstraw = experiment: Test B pre/postemergence bedstraw; format: in vivo, Galium aparine
# How it was run: as §1
# morningglory = experiment: Test B pre/postemergence morningglory; format: in vivo, Ipomoea hederacea
# How it was run: as §1
# blackgrass = experiment: Test B pre/postemergence blackgrass; format: in vivo, Alopecurus myosuroides
# How it was run: as §1
# pigweed = experiment: Test B pre/postemergence pigweed; format: in vivo, Amaranthus retroflexus
# How it was run: as §1
# [1] = Postemergence, Rate 1000 g/ha, scale 0 to 10 (0 no effect, 10 complete control)
# [2] = Preemergence, Rate 250 g/ha, scale of 0 to 10 where 0 is no effect and 10 is complete control
# [3] = Preemergence, Rate 500 g/ha, scale of 0 to 10 where 0 is no effect and 10 is complete control
# [4] = Rate 125 g/ha, Postemergence, scale of 0 to 10 where 0 is no effect and 10 is complete control
# [5] = Rate 125 g/ha, Preemergence, scale of 0 to 10 where 0 is no effect and 10 is complete control
# [6] = Rate 250 g/ha, Postemergence, scale of 0 to 10 where 0 is no effect and 10 is complete control
# [7] = Rate 500 g/ha, Postemergence, scale 0 to 10, 0 no effect, 10 complete control
# [8] = Rate 1000 g/ha, Preemergence, scale 0 to 10 (0 no effect, 10 complete control)
# [9] = Rate 1000 g/ha, scale 0 to 10 (0 no effect, 10 complete control)
# [10] = Rate 125 g/ha, flood test species, scale 0 to 10 where 0 is no effect and 10 is complete control
# [11] = Rate 250 g/ha, flood-test species, scale 0 to 10, 0 is no effect, 10 is complete control
# [12] = Rate 500 g/ha, flood test species, scale 0 to 10 (0 no effect, 10 complete control)
smiles,measurement,setting,value
CCOC(=O)C(C)N(C(=O)n1oc(=O)n(C2CCCCC2)c1=O)c1ccc(F)cc1 (stereo not shown) [Compound 280],Wheat plant response rating,wheat; [1],0
same,Wheat plant response rating,wheat; [2],0
same,"Plant response rating, Wheat",wheat; [3],0
same,Wheat plant response rating,wheat; [4],0
same,Wheat plant response rating,wheat; [5],0
same,"Plant response rating, Wheat",wheat; [6],0
same,Wheat plant response rating,wheat; [7],0
same,"Plant response rating, Wheat",wheat; [8],0
same,Barnyardgrass plant response rating,bamyardgrass; [9],0
same,Barnyardgrass plant response rating,bamyardgrass; [10],0
same,Barnyardgrass plant response rating,bamyardgrass; [11],0
same,Barnyardgrass plant response rating,bamyardgrass; [12],0
same,Nutsedge plant response rating,purple nutsedge; [1],0
same,Nutsedge plant response rating,purple nutsedge; [2],0
same,"Plant response rating, Nutsedge",purple nutsedge; [3],0
same,Nutsedge plant response rating,purple nutsedge; [4],0
same,Nutsedge plant response rating,purple nutsedge; [5],0
same,"Plant response rating, Nutsedge",purple nutsedge; [6],0
same,Nutsedge plant response rating,purple nutsedge; [7],0
same,"Plant response rating, Nutsedge",purple nutsedge; [8],0
same,Wild oats plant response rating,wild oat; [1],0
same,Wild oats plant response rating,wild oat; [2],0
same,"Plant response rating, Wild oats",wild oat; [3],0
same,Wild oats plant response rating,wild oat; [4],0
same,"Plant response rating, Wild oats",wild oat; [6],0
same,Wild oats plant response rating,wild oat; [7],0
same,"Plant response rating, Wild oats",wild oat; [8],0
same,Rice plant response rating,rice; [9],0
same,Rice plant response rating,rice; [10],0
same,Rice plant response rating,rice; [11],0
same,Rice plant response rating,rice; [12],0
same,Crabgrass plant response rating,crabgrass; [1],0
same,Crabgrass plant response rating,crabgrass; [2],0
same,"Plant response rating, Crabgrass",crabgrass; [3],0
same,Crabgrass plant response rating,crabgrass; [4],0
same,Crabgrass plant response rating,crabgrass; [5],0
same,"Plant response rating, Crabgrass",crabgrass; [6],0
same,Crabgrass plant response rating,crabgrass; [7],0
same,"Plant response rating, Crabgrass",crabgrass; [8],0
same,B. signalgrass plant response rating,surinam grass; [1],0
same,B. signalgrass plant response rating,surinam grass; [2],0
same,"Plant response rating, B. signalgrass",surinam grass; [3],0
same,B. signalgrass plant response rating,surinam grass; [4],0
same,B. signalgrass plant response rating,surinam grass; [5],0
same,"Plant response rating, B. signalgrass",surinam grass; [6],0
same,B. signalgrass plant response rating,surinam grass; [7],0
same,"Plant response rating, B. signalgrass",surinam grass; [8],0
same,Sugarbeets plant response rating,sugar beet; [1],0
same,Sugarbeets plant response rating,sugar beet; [2],0
same,"Plant response rating, Sugarbeets",sugar beet; [3],0
same,Sugarbeets plant response rating,sugar beet; [4],0
same,Sugarbeets plant response rating,sugar beet; [5],0
same,"Plant response rating, Sugarbeets",sugar beet; [6],0
same,Sugarbeets plant response rating,sugar beet; [7],0
same,"Plant response rating, Sugarbeets",sugar beet; [8],0
same,Rape plant response rating,rape; [1],0
same,Rape plant response rating,rape; [2],0
same,"Plant response rating, Rape",rape; [3],0
same,Rape plant response rating,rape; [4],0
same,Rape plant response rating,rape; [5],0
same,"Plant response rating, Rape",rape; [6],0
same,Rape plant response rating,rape; [7],0
same,"Plant response rating, Rape",rape; [8],0
same,S. Flatsedge plant response rating,smallflower flatsedge; [9],0
same,S. Flatsedge plant response rating,smallflower flatsedge; [10],0
same,S. Flatsedge plant response rating,smallflower flatsedge; [11],0
same,S. Flatsedge plant response rating,smallflower flatsedge; [12],0
same,Corn plant response rating,corn; [1],0
same,Corn plant response rating,corn; [2],0
same,"Plant response rating, Corn",corn; [3],0
same,Corn plant response rating,corn; [4],0
same,Corn plant response rating,corn; [5],0
same,"Plant response rating, Corn",corn; [6],0
same,Corn plant response rating,corn; [7],0
same,"Plant response rating, Corn",corn; [8],0
same,Giant foxtail plant response rating,giant foxtail; [1],0
same,Giant foxtail plant response rating,giant foxtail; [2],0
same,"Plant response rating, Giant foxtail",giant foxtail; [3],0
same,Giant foxtail plant response rating,giant foxtail; [4],0
same,Giant foxtail plant response rating,giant foxtail; [5],0
same,"Plant response rating, Giant foxtail",giant foxtail; [6],0
same,Giant foxtail plant response rating,giant foxtail; [7],0
same,"Plant response rating, Giant foxtail",giant foxtail; [8],0
same,Bedstraw plant response rating,bedstraw; [1],0
same,Bedstraw plant response rating,bedstraw; [2],0
same,"Plant response rating, Bedstraw",bedstraw; [3],0
same,Bedstraw plant response rating,bedstraw; [4],0
same,Bedstraw plant response rating,bedstraw; [5],0
same,"Plant response rating, Bedstraw",bedstraw; [6],0
same,Bedstraw plant response rating,bedstraw; [7],0
same,"Plant response rating, Bedstraw",bedstraw; [8],0
same,Morningglory plant response rating,morningglory; [1],0
same,Morningglory plant response rating,morningglory; [2],0
same,"Plant response rating, Morningglory",morningglory; [3],0
same,Morningglory plant response rating,morningglory; [4],0
same,Morningglory plant response rating,morningglory; [5],0
same,"Plant response rating, Morningglory",morningglory; [6],0
same,Morningglory plant response rating,morningglory; [7],0
same,"Plant response rating, Morningglory",morningglory; [8],0
same,Blackgrass plant response rating,blackgrass; [1],0
same,Blackgrass plant response rating,blackgrass; [2],0
same,"Plant response rating, Blackgrass",blackgrass; [3],0
same,Blackgrass plant response rating,blackgrass; [4],0
same,Blackgrass plant response rating,blackgrass; [5],0
same,"Plant response rating, Blackgrass",blackgrass; [6],0
same,Blackgrass plant response rating,blackgrass; [7],0
same,"Plant response rating, Blackgrass",blackgrass; [8],0
same,Redroot pigweed plant response rating,pigweed; [1],3
same,Redroot pigweed plant response rating,pigweed; [2],0
same,"Plant response rating, Redroot pigweed",pigweed; [3],0
same,Redroot pigweed plant response rating,pigweed; [4],0
same,Redroot pigweed plant response rating,pigweed; [5],0
same,"Plant response rating, Redroot pigweed",pigweed; [6],0
same,Redroot pigweed plant response rating,pigweed; [7],1
same,"Plant response rating, Redroot pigweed",pigweed; [8],0
